The source of these data is patent US11773078B2, “Furin inhibitors” (Glaxosmithkline Intellectual Property Development Limited, priority 2018, dated 2023).

In assay [1] the target is T1, furin (endogenous protease) in U20S cells (Homo sapiens, UniProt P09958).
T1 construct: the endogenous protease cleaves GFP; endogenous in cells; host or cells: U2OS cells transduced with a BacMam reporter
The experiment in a line: Furin cell-based assay (image-based, Golgi-targeted GFP with BMP10 furin/PCSK cleavage site).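 Also: Read-out is mean GFP fluorescence of Golgi puncta per cell by high-content imaging, retained when furin inhibited, over an eleven-point 0.00017–10 µM series, four-parameter fit.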 Conditions: 24-hour incubation, read-out: furin golgi cell pXC50 (converted).

The target in assay [2] is T2, Furin (108-574-Tev-Flag-His) enzyme (Homo sapiens, UniProt P09958).
T2 construct: Furin (108-574-Tev-Flag-His) enzyme was expressed and purified from CHO cells; TEV cleavage site (C); FLAG (C); His (C); made in house; host or cells: CHO cells
T2 sequence (P09958 108-574): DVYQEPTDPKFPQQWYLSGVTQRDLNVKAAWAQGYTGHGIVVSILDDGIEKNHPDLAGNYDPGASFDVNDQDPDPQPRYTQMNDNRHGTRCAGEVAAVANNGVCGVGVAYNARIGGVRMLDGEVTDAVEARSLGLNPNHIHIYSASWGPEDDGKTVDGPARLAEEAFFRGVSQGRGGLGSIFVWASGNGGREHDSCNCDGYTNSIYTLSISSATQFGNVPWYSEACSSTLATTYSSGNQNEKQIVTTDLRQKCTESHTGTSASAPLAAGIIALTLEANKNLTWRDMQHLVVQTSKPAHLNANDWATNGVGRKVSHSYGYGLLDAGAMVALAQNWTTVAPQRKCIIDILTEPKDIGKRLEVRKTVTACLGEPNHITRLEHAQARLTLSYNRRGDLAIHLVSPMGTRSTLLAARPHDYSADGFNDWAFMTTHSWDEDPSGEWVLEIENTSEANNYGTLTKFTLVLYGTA
The experiment in a line: Furin enzyme assay. Format: biochemical. A digest of the protocol:
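Compounds ran as 11-point threefold dilutions (0.00017–10 μM final) against 40 pM furin, purified from CHO cells, for 2 h at room temperature. Buffer: 100 mM HEPES pH7.5 with 1 mM CaCl2 and 0.005% Triton X-100. Envision readout. Four-parameter curve gives pXC50.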

Where a name gives a salt, the structure may show the parent alone.

T1 sequence (P09958 108-794): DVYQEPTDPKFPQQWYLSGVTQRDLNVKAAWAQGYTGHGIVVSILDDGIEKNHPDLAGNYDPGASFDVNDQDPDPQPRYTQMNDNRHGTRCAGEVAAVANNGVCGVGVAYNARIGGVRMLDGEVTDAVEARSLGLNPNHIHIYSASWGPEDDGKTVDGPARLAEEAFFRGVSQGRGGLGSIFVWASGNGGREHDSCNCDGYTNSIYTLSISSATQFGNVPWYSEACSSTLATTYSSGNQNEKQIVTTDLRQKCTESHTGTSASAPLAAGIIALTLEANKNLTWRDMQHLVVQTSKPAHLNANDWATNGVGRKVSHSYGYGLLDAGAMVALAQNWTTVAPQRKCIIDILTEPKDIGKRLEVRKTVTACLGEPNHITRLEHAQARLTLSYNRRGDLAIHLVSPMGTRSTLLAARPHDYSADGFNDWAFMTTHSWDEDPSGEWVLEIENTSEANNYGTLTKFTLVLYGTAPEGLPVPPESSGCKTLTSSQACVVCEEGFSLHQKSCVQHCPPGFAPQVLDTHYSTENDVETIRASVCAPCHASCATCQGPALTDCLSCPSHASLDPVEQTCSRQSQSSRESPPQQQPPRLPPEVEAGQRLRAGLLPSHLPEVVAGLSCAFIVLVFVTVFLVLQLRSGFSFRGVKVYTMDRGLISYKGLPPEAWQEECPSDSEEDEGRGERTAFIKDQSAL

Consider `CN1CCN(c2cnc(Oc3cc(CN4CCC(CCO)CC4)cc(-c4cc(Cl)cc(Cl)c4)n3)cn2)CC1` [Example 350, 2-(1-((2-(3,5-dichlorophenyl)-6-((5-(4-methylpiperazin-1-yl)pyrazin-2-yl)oxy)pyridin-4-yl)methyl)piperidin-4-yl)ethanol], for which the EC50 in assay [1] was 1.26 nM. For the same molecule, the “furin enzyme pIC50” value in assay [2] came out at 8.6.

Take `CC(CC1CCN(Cc2cc(Oc3cnc(N4CCCN(C)CC4)cn3)nc(-c3cc(Cl)cc(Cl)c3)c2)CC1)C(=O)O` (centres unmarked) [Example 351, 3-(1-((2-(3,5-dichlorophenyl)-6-((5-(4-methyl-1,4-diazepan-1-yl)pyrazin-2-yl)oxy)pyridin-4-yl)methyl)piperidin-4-yl)-2-methylpropanoic acid]: the EC50 in assay [1] was 25.1 nM. Further, the “furin enzyme pIC50” value in assay [2] amounted to 9.4.

As to `CN1C2CC1CN(c1cnc(Oc3cc(CN4CCC(CC(=O)O)CC4)cc(-c4cc(Cl)cc(Cl)c4)n3)cn1)C2` [Example 352, 2-(1-((2-(3,5-dichlorophenyl)-6-((5-(6-methyl-3,6-diazabicyclo[3.1.1]heptan-3-yl)pyrazin-2-yl)oxy)pyridin-4-yl)methyl)piperidin-4-yl)acetic acid], the EC50 in assay [1] is 50.1 nM. The “furin enzyme pIC50” value in assay [2] stood at 8.2.

For the molecule `CN1CCN(c2cnc(Oc3cc(CN4CCC(OC5(C(=O)O)CC5)CC4)cc(-c4cc(Cl)cc(Cl)c4)n3)cn2)CC1` [Example 353, 1-((1-((2-(3,5-dichlorophenyl)-6-((5-(4-methylpiperazin-1-yl)pyrazin-2-yl)oxy)pyridin-4-yl)methyl)piperidin-4-yl)oxy)cyclopropanecarboxylic acid], in assay [1], the EC50 is 25.1 nM. For the same molecule, the “furin enzyme pIC50” value in assay [2] was determined as 8.1.

`CS(=O)(=O)CCCN1CCN(c2cnc(Oc3cc(CN4CCC(CC(=O)O)CC4)cc(-c4cc(Cl)cc(Cl)c4)n3)cn2)CC1` [Example 354, 2-(1-((2-(3,5-dichlorophenyl)-6-((5-(4-(3-(methylsulfonyl)propyl)piperazin-1-yl)pyrazin-2-yl)oxy)pyridin-4-yl)methyl)piperidin-4-yl)acetic acid]: the EC50 in assay [1] was 25.1 nM. In addition, in assay [2], the “furin enzyme pIC50” value came out at 8.1.

Consider `CCN1CCCN(c2ccc(Oc3cc(CN4CCC(CC(=O)O)CC4)cc(-c4cc(Cl)cc(Cl)c4)n3)nn2)CC1` [Example 355, 2-(1-((2-(3,5-dichlorophenyl)-6-((6-(4-ethyl-1,4-diazepan-1-yl)pyridazin-3-yl)oxy)pyridin-4-yl)methyl)piperidin-4-yl)acetic acid], for which, in assay [1], the EC50 is 10 nM. Also, the “furin enzyme pIC50” value in assay [2] is listed as 8.6.

For `CN1CCCN(c2ccc(Oc3cc(CN4CCC(CC(=O)O)CC4)cc(-c4cc(Cl)cc(Cl)c4)n3)nn2)CC1` [Example 356, 2-(1-((2-(3,5-dichlorophenyl)-6-((6-(4-methyl-1,4-diazepan-1-yl)pyridazin-3-yl)oxy)pyridin-4-yl)methyl)piperidin-4-yl)acetic acid], in assay [1], the EC50 is 31.6 nM. Also, in assay [2], the “furin enzyme pIC50” value came out at 8.6.

Turning to `CN1C[C@@H]2C[C@H]1CN2c1ccc(Oc2cc(CN3CCC(CC(=O)O)CC3)cc(-c3cc(Cl)cc(Cl)c3)n2)nn1` [Example 357, 2-(1-((2-(3,5-dichlorophenyl)-6-((6-((1S,4S)-5-methyl-2,5-diazabicyclo[2.2.1]heptan-2-yl)pyridazin-3-yl)oxy)pyridin-4-yl)methyl)piperidin-4-yl)acetic acid], in assay [1], the EC50 is 100 nM. For the same molecule, the “furin enzyme pIC50” value in assay [2] came to 8.5.

Consider `CCN1CCN(c2ccc(Oc3cc(CN4CCC(CC(=O)O)CC4)cc(-c4cc(Cl)cc(Cl)c4)n3)nn2)CC1` [Example 358, 2-(1-((2-(3,5-dichlorophenyl)-6-((6-(4-ethylpiperazin-1-yl)pyridazin-3-yl)oxy)pyridin-4-yl)methyl)piperidin-4-yl)acetic acid], for which the EC50 in assay [1] was 20 nM. The “furin enzyme pIC50” value in assay [2] came out at 9.1.

On to `CN1CCN(c2ccc(Oc3cc(CN4CCC(CC(=O)O)CC4)cc(-c4cc(Cl)cc(Cl)c4)n3)nn2)CC1` [Example 359, 2-(1-((2-(3,5-dichlorophenyl)-6-((6-(4-methylpiperazin-1-yl)pyridazin-3-yl)oxy)pyridin-4-yl)methyl)piperidin-4-yl)acetic acid], for which, in assay [1], the EC50 is 63.1 nM. Moreover, in assay [2], the “furin enzyme pIC50” value was determined as 9.

Regarding `CN1CCN(c2ccc(Oc3cc(CN4CCC(CCO)CC4)cc(-c4cc(Cl)cc(Cl)c4)n3)nn2)CC1` [Example 360, 2-(1-((2-(3,5-dichlorophenyl)-6-((6-(4-methylpiperazin-1-yl)pyridazin-3-yl)oxy)pyridin-4-yl)methyl)piperidin-4-yl)ethanol], the EC50 in assay [1] is 12.6 nM. The “furin enzyme pIC50” value in assay [2] was determined as 9.

For `CN1CCN(c2ccc(Oc3cc(CN4CC[C@@H]5[C@H](CC4)[C@H]5C(=O)O)cc(-c4cc(Cl)cc(Cl)c4)n3)nn2)CC1` [Example 361, (1R,7S,8r)-4-((2-(3,5-dichlorophenyl)-6-((6-(4-methylpiperazin-1-yl)pyridazin-3-yl)oxy)pyridin-4-yl)methyl)-4-azabicyclo[5.1.0]octane-8-carboxylic acid], in assay [1], the EC50 was 50.1 nM. Also, the “furin enzyme pIC50” value in assay [2] turned out to be 9.

Turning to `CN1CCCN(c2ccc(Oc3cc(CN4CC[C@@H]5[C@H](CC4)[C@H]5C(=O)O)cc(-c4cc(Cl)cc(Cl)c4)n3)nn2)CC1` [Example 362, (1R,7S,8r)-4-((2-(3,5-dichlorophenyl)-6-((6-(4-methyl-1,4-diazepan-1-yl)pyridazin-3-yl)oxy)pyridin-4-yl)methyl)-4-azabicyclo[5.1.0]octane-8-carboxylic acid], in assay [1], the EC50 is 25.1 nM. In addition, in assay [2] (read-out: furin enzyme pIC50 (converted)), the IC50 is 0.0316 nM.

With `CC(=O)NCC1CCN(Cc2cc(Oc3ccc(N4CCN(CC(C)C(=O)O)CC4)nn3)nc(-c3cc(Cl)cc(Cl)c3)c2)CC1` (centres unmarked) [Example 363, 3-(4-(6-((4-((4-(acetamidomethyl)piperidin-1-yl)methyl)-6-(3,5-dichlorophenyl)pyridin-2-yl)oxy)pyridazin-3-yl)piperazin-1-yl)-2-methylpropanoic acid], the EC50 in assay [1] was 631 nM. In addition, in assay [2], the “furin enzyme pIC50” value came to 9.7.

For `C[C@@H](CC1CCN(Cc2cc(Oc3ccc(N4CCN(C)CC4)nn3)nc(-c3cc(Cl)cc(Cl)c3)c2)CC1)C(=O)O` [Example 365, (S)-3-(1-((2-(3,5-dichlorophenyl)-6-((6-(4-methylpiperazin-1-yl)pyridazin-3-yl)oxy)pyridin-4-yl)methyl)piperidin-4-yl)-2-methylpropanoic acid], the EC50 in assay [1] is 126 nM. Also, in assay [2], the “furin enzyme pIC50” value is reported as 9.9.

As to `CCN1C[C@@H]2C[C@H]1CN2c1ccc(Oc2cc(CN3CCC(CC(=O)O)CC3)cc(-c3cc(Cl)cc(Cl)c3)n2)nn1` [Example 366, 2-(1-((2-(3,5-dichlorophenyl)-6-((6-((1S,4S)-5-ethyl-2,5-diazabicyclo[2.2.1]heptan-2-yl)pyridazin-3-yl)oxy)pyridin-4-yl)methyl)piperidin-4-yl)acetic acid], the EC50 in assay [1] was 31.6 nM. Further, the “furin enzyme pIC50” value in assay [2] was 8.8.

Take `CC(=O)N[C@H]1[C@@H]2CCN(Cc3cc(Oc4cnc(N5CCN(CCC(=O)O)CC5)nc4)nc(-c4cc(Cl)cc(Cl)c4)c3)CC[C@@H]21` [Example 367]: the EC50 in assay [1] is 2.51 nM. Also, the “furin enzyme pIC50” value in assay [2] was 10.1.

Regarding `COC(=O)C(C)CCN1CCN(c2ncc(Oc3cc(CN4CCC(CNC(C)=O)CC4)cc(-c4cc(Cl)cc(Cl)c4)n3)cn2)CC1` (centres unmarked) [Example 368, methyl 4-(4-(5-((4-((4-(acetamidomethyl)piperidin-1-yl)methyl)-6-(3,5-dichlorophenyl)pyridin-2-yl)oxy)pyrimidin-2-yl)piperazin-1-yl)-2-methylbutanoate], the EC50 in assay [1] was 3.98 nM. Moreover, in assay [2], the “furin enzyme pIC50” value is listed as 8.3.

For `CC(=O)NCC1CCN(Cc2cc(Oc3cnc(N4CCN(CCC(C)(C)C(=O)O)CC4)nc3)nc(-c3cc(Cl)cc(Cl)c3)c2)CC1` [Example 370, 4-(4-(5-((4-((4-(Acetamidomethyl)piperidin-1-yl)methyl)-6-(3,5-dichlorophenyl)pyridin-2-yl)oxy)pyrimidin-2-yl)piperazin-1-yl)-2,2-dimethylbutanoic acid, 4 hydrochloride], the EC50 in assay [1] is 6.31 nM. The “furin enzyme pIC50” value in assay [2] is on record as 9.2.

In the case of `Cc1c(CN2CCC(CC(=O)O)CC2)cc(-c2cc(Cl)cc(Cl)c2)nc1Oc1ccc(N2CCN(C)CC2)nn1` [Example 371, 2-(1-((6-(3,5-Dichlorophenyl)-3-methyl-2-((6-(4-methylpiperazin-1-yl)pyridazin-3-yl)oxy)pyridin-4-yl)methyl)piperidin-4-yl)acetic acid], the EC50 in assay [1] is 31.6 nM. In addition, the “furin enzyme pIC50” value in assay [2] is reported as 8.9.

In the case of `CC(=O)NCC1CCN(Cc2cc(Oc3cnc(N4CCN(C(C)CCS(C)(=O)=O)CC4)nc3)nc(-c3cc(F)cc(Cl)c3)c2)CC1` (centres unmarked) [Example 372, N-((1-((2-(3-Chloro-5-fluorophenyl)-6-((2-(4-(4-(methylsulfonyl)butan-2-yl)piperazin-1-yl)pyrimidin-5-yl)oxy)pyridin-4-yl)methyl)piperidin-4-yl)methyl)acetamide], in assay [1], the EC50 is 3.98 nM. For the same molecule, the “furin enzyme pIC50” value in assay [2] came out at 8.8.

On to `CNC(=O)NCC1CCN(Cc2cc(Oc3cnc(N4CCN(C(C)CCS(C)(=O)=O)CC4)nc3)nc(-c3cc(F)cc(Cl)c3)c2)CC1` (centres unmarked) [Example 373, 1-((1-((2-(3-chloro-5-fluorophenyl)-6-((2-(4-(4-(methylsulfonyl)butan-2-yl)piperazin-1-yl)pyrimidin-5-yl)oxy)pyridin-4-yl)methyl)piperidin-4-yl)methyl)-3-methylurea], for which the EC50 in assay [1] was 5.01 nM. Further, in assay [2], the “furin enzyme pIC50” value is listed as 8.9.
